Experimental data published in article PMC11252453 (Acta Pharmaceutica Sinica. B, 2024).

Legend:
[1] = system: SARS-CoV-2 PLpro mediated IFNB expression; format: cell-based
[2] = system: Vero E6 cells; conditions: African green monkey
[3] = target: SARS-CoV-2 PLpro (Severe acute respiratory syndrome coronavirus 2, UniProt P0DTD1); experiment: cell-based

Structure (SMILES) | IFNB mRNA expression [1] | CC50 [2] | EC50 [3]
CCC(C(=O)Nc1cc(NC2CCNCC2)ccc1C)n1cc(Cl)cc2nc(SCc3ccc(F)cc3)nc1-2 (stereo not shown) [Compound 39] | fully restore IFNB expression | > 50 µM | 
CCC(C(=O)Nc1cc(NC2CCNCC2)ccc1C)n1cc(Br)cc2nc(SCc3ccc(F)cc3)nc1-2 (stereo not shown) [Compound 44] |  |  | 3.81 ± 0.59 µM
CCC(C(=O)Nc1cc(NC2COC2)ccc1C)n1cc(Br)cc2nc(SCc3ccc(F)cc3)nc1-2 (stereo not shown) [Compound 45] | fully restore IFNB expression |  | 
